Laboratory results from US11746102B2, “Polymorphs of selinexor” (Karyopharm Therapeutics Inc., priority 2014, dated 2023).

Assay: Solubility assessment (visual) of selinexor in solvents and solvent mixtures
Format: physicochemical
Conditions: any of the MTBE:heptane mixtures investigated

SMILES: O=C(/C=C\n1cnc(-c2cc(C(F)(F)F)cc(C(F)(F)F)c2)n1)NNc1cnccn1 [Selinexor, (Z)-3-(3-(3,5-bis(trifluoromethyl)phenyl)-1H-1,2,4-triazol-1-yl)-N′-(pyrazin-2-yl)acrylohydrazide]
- Solubility: > 100 volumes
